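These data come from cells grown in 96-well plates and exposed to compound for 48 hours at five concentrations. Here, GI50 denotes the concentration required for 50% inhibition of growth. TGI marks complete inhibition of growth.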
Legend:
Assay in all cases: NCI anticancer screen, dose series, 48 h
SK-MEL-28 melanoma = system: SK-MEL-28 melanoma
PC-3 prostate = system: PC-3 prostate
K-562 leukemia = system: K-562 leukemia
CCRF-CEM leukemia = system: CCRF-CEM leukemia
OVCAR-5 ovarian = system: OVCAR-5 ovarian
UACC-257 melanoma = system: UACC-257 melanoma
MDA-N = system: MDA-N
HL-60(TB) leukemia = system: HL-60(TB) leukemia
MCF7 breast = system: MCF7 breast
SNB-19 CNS = system: SNB-19 CNS
T-47D breast = system: T-47D breast
SN12C renal = system: SN12C renal
SR leukemia = system: SR leukemia
DU-145 prostate = system: DU-145 prostate
EKVX NSCLC = system: EKVX NSCLC
NCI-H23 lung = system: NCI-H23 lung
HT29 colon = system: HT29 colon
MDA-MB-231 breast = system: MDA-MB-231 breast
OVCAR-8 ovarian = system: OVCAR-8 ovarian
IGROV1 ovarian = system: IGROV1 ovarian
NCI/ADR-RES ovarian = system: NCI/ADR-RES ovarian
SF-268 CNS = system: SF-268 CNS
A498 renal = system: A498 renal
SF-539 CNS = system: SF-539 CNS
HCT-116 colon = system: HCT-116 colon
LOX IMVI melanoma = system: LOX IMVI melanoma
HS 578T breast = system: HS 578T breast
MALME-3M melanoma = system: MALME-3M melanoma
ACHN renal = system: ACHN renal
SW-620 colon = system: SW-620 colon
CAKI-1 renal = system: CAKI-1 renal
U251 CNS = system: U251 CNS
HOP-92 NSCLC = system: HOP-92 NSCLC
KM12 colon = system: KM12 colon
A549 NSCLC = system: A549 NSCLC
OVCAR-3 ovarian = system: OVCAR-3 ovarian
RPMI-8226 leukemia = system: RPMI-8226 leukemia
786-0 renal = system: 786-0 renal
BT-549 breast = system: BT-549 breast
NCI-H522 lung = system: NCI-H522 lung
SF-295 CNS = system: SF-295 CNS
MDA-MB-435 = system: MDA-MB-435
M14 melanoma = system: M14 melanoma
TK-10 renal = system: TK-10 renal
NCI-H460 lung = system: NCI-H460 lung
SNB-75 CNS = system: SNB-75 CNS
UO-31 renal = system: UO-31 renal
NCI-H226 lung = system: NCI-H226 lung
SK-MEL-2 melanoma = system: SK-MEL-2 melanoma
HCC-2998 colon = system: HCC-2998 colon
HCT-15 colon = system: HCT-15 colon
UACC-62 melanoma = system: UACC-62 melanoma
SK-MEL-5 melanoma = system: SK-MEL-5 melanoma
COLO 205 colon = system: COLO 205 colon
MOLT-4 leukemia = system: MOLT-4 leukemia
HOP-62 NSCLC = system: HOP-62 NSCLC
OVCAR-4 ovarian = system: OVCAR-4 ovarian
RXF 393 renal = system: RXF 393 renal
SK-OV-3 ovarian = system: SK-OV-3 ovarian

Q: With `CC1(C)OC2C(O)C(CO)OC2(C(F)F)O1` (configuration not stated) as the compound, how does the TGI (SK-MEL-28 melanoma) read?
A: > 100 µM

Q: And the TGI (PC-3 prostate)?
A: > 100 µM

Q: And the TGI (K-562 leukemia)?
A: > 100 µM

Q: What about the TGI (CCRF-CEM leukemia) of the same compound?
A: > 100 µM

Q: What about the TGI (OVCAR-5 ovarian) of the same compound?
A: > 100 µM

Q: And the TGI (UACC-257 melanoma)?
A: > 100 µM

Q: What about the TGI (MDA-N) of the same compound?
A: > 100 µM

Q: And the TGI (HL-60(TB) leukemia)?
A: > 100 µM

Q: What about the TGI (MCF7 breast) of the same compound?
A: > 100 µM

Q: What about the TGI (SNB-19 CNS) of the same compound?
A: > 100 µM

Q: And the TGI (T-47D breast)?
A: > 100 µM

Q: And the TGI (SN12C renal)?
A: > 100 µM

Q: What about the TGI (SR leukemia) of the same compound?
A: > 100 µM

Q: What about the TGI (DU-145 prostate) of the same compound?
A: > 100 µM

Q: What about the TGI (EKVX NSCLC) of the same compound?
A: > 100 µM

Q: And the TGI (NCI-H23 lung)?
A: > 100 µM

Q: And the TGI (HT29 colon)?
A: > 100 µM

Q: What about the TGI (MDA-MB-231 breast) of the same compound?
A: > 100 µM

Q: What about the TGI (OVCAR-8 ovarian) of the same compound?
A: > 100 µM

Q: What about the TGI (IGROV1 ovarian) of the same compound?
A: > 100 µM

Q: What about the TGI (NCI/ADR-RES ovarian) of the same compound?
A: > 100 µM

Q: What about the TGI (SF-268 CNS) of the same compound?
A: > 100 µM

Q: And the TGI (A498 renal)?
A: > 100 µM

Q: And the TGI (SF-539 CNS)?
A: > 100 µM

Q: And the TGI (HCT-116 colon)?
A: > 100 µM

Q: What about the TGI (LOX IMVI melanoma) of the same compound?
A: > 100 µM

Q: What about the TGI (HS 578T breast) of the same compound?
A: > 100 µM

Q: And the TGI (MALME-3M melanoma)?
A: > 100 µM

Q: And the TGI (ACHN renal)?
A: > 100 µM

Q: And the TGI (SW-620 colon)?
A: > 100 µM

Q: And the TGI (CAKI-1 renal)?
A: > 100 µM

Q: What about the TGI (U251 CNS) of the same compound?
A: > 100 µM

Q: And the TGI (HOP-92 NSCLC)?
A: > 100 µM

Q: And the TGI (KM12 colon)?
A: > 100 µM

Q: And the TGI (A549 NSCLC)?
A: > 100 µM

Q: What about the TGI (OVCAR-3 ovarian) of the same compound?
A: > 100 µM

Q: And the TGI (RPMI-8226 leukemia)?
A: > 100 µM

Q: And the TGI (786-0 renal)?
A: > 100 µM

Q: What about the TGI (BT-549 breast) of the same compound?
A: > 100 µM

Q: And the TGI (NCI-H522 lung)?
A: > 100 µM

Q: What about the TGI (SF-295 CNS) of the same compound?
A: > 100 µM

Q: And the TGI (MDA-MB-435)?
A: > 100 µM

Q: And the TGI (M14 melanoma)?
A: > 100 µM

Q: What about the TGI (TK-10 renal) of the same compound?
A: > 100 µM

Q: And the TGI (NCI-H460 lung)?
A: > 100 µM

Q: And the TGI (SNB-75 CNS)?
A: > 100 µM

Q: And the TGI (UO-31 renal)?
A: > 100 µM

Q: And the TGI (NCI-H226 lung)?
A: > 100 µM

Q: What about the TGI (SK-MEL-2 melanoma) of the same compound?
A: > 100 µM

Q: And the TGI (HCC-2998 colon)?
A: > 100 µM

Q: What about the TGI (HCT-15 colon) of the same compound?
A: > 100 µM

Q: And the TGI (UACC-62 melanoma)?
A: > 100 µM

Q: What about the TGI (SK-MEL-5 melanoma) of the same compound?
A: > 100 µM

Q: What about the TGI (COLO 205 colon) of the same compound?
A: > 100 µM

Q: What about the TGI (MOLT-4 leukemia) of the same compound?
A: > 100 µM

Q: And the TGI (HOP-62 NSCLC)?
A: > 100 µM

Q: And the TGI (OVCAR-4 ovarian)?
A: > 100 µM

Q: What about the TGI (RXF 393 renal) of the same compound?
A: > 100 µM

Q: And the TGI (SK-OV-3 ovarian)?
A: > 100 µM

Q: Which results are given for `NCCc1cc(O)c(O)cc1O`?
A: TGI (SK-MEL-28 melanoma): 97.5 µM; TGI (PC-3 prostate): > 100 µM; TGI (K-562 leukemia): > 80.5 µM; TGI (CCRF-CEM leukemia): 23.6 µM; TGI (OVCAR-5 ovarian): 61.3 µM; TGI (UACC-257 melanoma): 62.1 µM; TGI (MDA-N): 47 µM; GI50 (HL-60(TB) leukemia): 12.8 µM; TGI (HL-60(TB) leukemia): 65.6 µM; TGI (MCF7 breast): 44.4 µM; TGI (SNB-19 CNS): > 100 µM; TGI (T-47D breast): 73.2 µM; TGI (SN12C renal): 39.4 µM; TGI (SR leukemia): 31 µM; TGI (DU-145 prostate): 32.4 µM; TGI (EKVX NSCLC): 65.9 µM; GI50 (NCI-H23 lung): 24.2 µM; TGI (NCI-H23 lung): > 69.6 µM; TGI (HT29 colon): 67.6 µM; TGI (MDA-MB-231 breast): 44.6 µM; TGI (OVCAR-8 ovarian): > 53.6 µM; TGI (IGROV1 ovarian): 38.2 µM; TGI (NCI/ADR-RES ovarian): > 86.7 µM; TGI (SF-268 CNS): 58.5 µM; TGI (A498 renal): > 100 µM; TGI (SF-539 CNS): 44.3 µM; TGI (HCT-116 colon): 53.3 µM; GI50 (LOX IMVI melanoma): 19.1 µM; TGI (LOX IMVI melanoma): 40 µM; GI50 (HS 578T breast): 34.4 µM; TGI (HS 578T breast): > 100 µM; TGI (MALME-3M melanoma): > 74.1 µM; TGI (ACHN renal): 60.1 µM; TGI (SW-620 colon): 40 µM; TGI (CAKI-1 renal): 61.5 µM; GI50 (U251 CNS): 14 µM; TGI (U251 CNS): 28.5 µM; GI50 (HOP-92 NSCLC): 10 µM; TGI (HOP-92 NSCLC): 59.5 µM; TGI (KM12 colon): 58.5 µM; TGI (A549 NSCLC): > 100 µM; TGI (OVCAR-3 ovarian): 58.4 µM; TGI (RPMI-8226 leukemia): 39.3 µM; TGI (786-0 renal): > 69.1 µM; TGI (BT-549 breast): 70.6 µM; GI50 (NCI-H522 lung): 1.53 µM; TGI (NCI-H522 lung): 3.44 µM; TGI (SF-295 CNS): 49.3 µM; TGI (MDA-MB-435): 32.7 µM; TGI (M14 melanoma): 92.5 µM; TGI (TK-10 renal): > 100 µM; TGI (NCI-H460 lung): 80.4 µM; TGI (SNB-75 CNS): 70.6 µM; TGI (UO-31 renal): 51.2 µM; GI50 (NCI-H226 lung): 29.6 µM; TGI (NCI-H226 lung): > 100 µM; TGI (SK-MEL-2 melanoma): 71.7 µM; TGI (HCC-2998 colon): > 100 µM; TGI (HCT-15 colon): 44.5 µM; TGI (UACC-62 melanoma): 74.9 µM; TGI (SK-MEL-5 melanoma): 38.6 µM; TGI (COLO 205 colon): > 72.9 µM; TGI (MOLT-4 leukemia): 70.7 µM; TGI (HOP-62 NSCLC): 45 µM; GI50 (OVCAR-4 ovarian): 12.3 µM; TGI (OVCAR-4 ovarian): 25.6 µM; TGI (RXF 393 renal): 97.5 µM; TGI (SK-OV-3 ovarian): > 84.1 µM

From PubChem BioAssay (NCI)
